Laboratory results reported in PubChem BioAssay AID330 (DTP/NCI, 2004).
Values joined by “and” are separate entries in the source; they are usually repeats but may differ in a detail not shown here. Equal entries are not always repeated. Inconclusive results and toxic doses are left out.

Tested on: P388 leukemia ip, CD2F1 mice, survival T/C
Assay: NCI In Vivo Anticancer Drug Screen. Data for tumor model P388 Leukemia (intraperitoneal) in CD2F1 (CDF1) mice
Conditions: endpoint: median survival time, higher = longer survival
Method in brief: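 Mice carrying the transplanted tumor received test compound or vehicle. Survival was recorded in each group, and the value is the treated-group measurement divided by that of the vehicle-treated control group.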

[1] = dose: 30.0 mg/kg/injection, schedule: Q01DX005 (ip), vehicle: Klucel (hydroxypropylcellulose) (HPC)
[2] = dose: 60.0 mg/kg/injection, schedule: Q01DX005 (ip), vehicle: Klucel (hydroxypropylcellulose) (HPC)
[3] = dose: 120.0 mg/kg/injection, schedule: Q01DX005 (ip), vehicle: Klucel (hydroxypropylcellulose) (HPC)
[4] = dose: 240.0 mg/kg/injection, schedule: Q01DX005 (ip), vehicle: Klucel (hydroxypropylcellulose) (HPC)
[5] = dose: 50.0 mg/kg/injection, schedule: Q01DX005 (ip), vehicle: Klucel (hydroxypropylcellulose) (HPC)
[6] = dose: 100.0 mg/kg/injection, schedule: Q01DX005 (ip), vehicle: Klucel (hydroxypropylcellulose) (HPC)
[7] = dose: 200.0 mg/kg/injection, schedule: Q01DX005 (ip), vehicle: Klucel (hydroxypropylcellulose) (HPC)
[8] = dose: 100.0 mg/kg/injection, schedule: Q01DX001 (ip), vehicle: saline with Tween-80
[9] = dose: 200.0 mg/kg/injection, schedule: Q01DX001 (ip), vehicle: saline with Tween-80
[10] = dose: 50.0 mg/kg/injection, schedule: Q01DX009 (ip), vehicle: saline with Tween-80
[11] = dose: 100.0 mg/kg/injection, schedule: Q01DX009 (ip), vehicle: saline with Tween-80
[12] = dose: 200.0 mg/kg/injection, schedule: Q01DX009 (ip), vehicle: saline with Tween-80
[13] = dose: 60.0 mg/kg/injection, schedule: Q01DX005 (ip), vehicle: saline with Tween-80
[14] = dose: 120.0 mg/kg/injection, schedule: Q01DX005 (ip), vehicle: saline with Tween-80
[15] = dose: 240.0 mg/kg/injection, schedule: Q01DX005 (ip), vehicle: saline with Tween-80
[16] = dose: 100.0 mg/kg/injection, schedule: Q04DX003 (ip), vehicle: Klucel (hydroxypropylcellulose) (HPC)
[17] = dose: 200.0 mg/kg/injection, schedule: Q04DX003 (ip), vehicle: Klucel (hydroxypropylcellulose) (HPC)

Nc1nc(/C=C\c2ccccc2)cc(-c2cc(/C=C\c3ccccc3)nc(N)n2)n1
T/C [1]: 97 % of control
T/C [2]: 90 % of control and 94 % of control
T/C [3]: 97 % of control
T/C [4]: 95 % of control

COc1ccccc1-n1c(=O)c(N=Nc2ccccc2)c(O)n(-c2ccccc2Cl)c1=S
T/C (dose: 100.0 mg/kg/injection, schedule: Q01DX001 (ip), vehicle: Klucel (hydroxypropylcellulose) (HPC)): 97 % of control
T/C (dose: 200.0 mg/kg/injection, schedule: Q01DX001 (ip), vehicle: Klucel (hydroxypropylcellulose) (HPC)): 95 % of control
T/C (dose: 400.0 mg/kg/injection, schedule: Q01DX001 (ip), vehicle: Klucel (hydroxypropylcellulose) (HPC)): 94 % of control

COc1cc(OC)cc(C2OC3=C(Nc4ccc([N+](=O)[O-])cc4N3)C2=O)c1 (centres undefined)
T/C [2]: 90 % of control
T/C [3]: 90 % of control
T/C [4]: 90 % of control

NC(=S)N/N=C/c1ncccc1O
T/C (dose: 25.0 mg/kg/injection, schedule: Q01DX009 (ip), vehicle: saline): 158 % of control
T/C (dose: 50.0 mg/kg/injection, schedule: Q01DX005 (ip), vehicle: saline): 155 % of control
T/C (dose: 50.0 mg/kg/injection, schedule: Q01DX009 (ip), vehicle: saline): 151 % of control and 158 % of control
T/C (dose: 100.0 mg/kg/injection, schedule: Q01DX005 (ip), vehicle: saline): 162 % of control
T/C (dose: 100.0 mg/kg/injection, schedule: Q01DX005 (ip), vehicle: suspension in saline): 167 % of control
T/C (dose: 100.0 mg/kg/injection, schedule: Q01DX009 (ip), vehicle: saline): 180 % of control
T/C (dose: 200.0 mg/kg/injection, schedule: Q01DX005 (ip), vehicle: saline): 157 % of control
T/C (dose: 200.0 mg/kg/injection, schedule: Q01DX005 (ip), vehicle: suspension in saline): 90 % of control

Cc1cc(Br)c(NC(=O)c2c(-c3c(Cl)cccc3Cl)noc2C)c(Br)c1
T/C [2]: 88 % of control
T/C [3]: 95 % of control

Cc1ccc(S(=O)(=O)N2CCCCN(S(=O)(=O)c3ccc(C)cc3)COC2)cc1
T/C [5]: 101 % of control
T/C [6]: 101 % of control
T/C [7]: 102 % of control

CC(C)C[CH2][Ge]([CH2]CC(C)C)([CH2]CC(C)C)[CH2]CC(C)C
T/C [8]: 100 % of control
T/C [9]: 94 % of control
T/C (dose: 400.0 mg/kg/injection, schedule: Q01DX001 (ip), vehicle: saline with Tween-80): 96 % of control

Nc1c(-c2ncc[nH]2)[nH]c2cc(-c3ncc[nH]3)ccc12
T/C (dose: 15.0 mg/kg/injection, schedule: Q01DX005 (ip), vehicle: Klucel (hydroxypropylcellulose) (HPC)): 97 % of control
T/C [1]: 100 % of control
T/C [2]: 99 % of control and 101 % of control

CC1CCC(C(C)C)C([c-]2[c-][c-][c-][c-]2)C1.CC1CCC(C(C)C)C([c-]2[c-][c-][c-][c-]2)C1.[Cl][Zr][Cl] (centres undefined)
T/C (dose: 6.25 mg/kg/injection, schedule: Q01DX001 (ip), vehicle: Klucel (hydroxypropylcellulose) (HPC)): 110 % of control
T/C (dose: 12.5 mg/kg/injection, schedule: Q01DX001 (ip), vehicle: Klucel (hydroxypropylcellulose) (HPC)): 100 % of control
T/C (dose: 25.0 mg/kg/injection, schedule: Q01DX001 (ip), vehicle: Klucel (hydroxypropylcellulose) (HPC)): 103 % of control

CSc1nc(N)n2ncc(Br)c2n1
T/C (dose: 100.0 mg/kg/injection, schedule: Q04DX002 (ip), vehicle: saline with Tween-80): 92 % of control

O=C(Nc1ccc([N+](=O)[O-])cc1C(Sc1ccccc1)c1ccccc1)c1ccc([N+](=O)[O-])cc1 (centres undefined)
T/C [8]: 94 % of control
T/C [9]: 87 % of control

Cc1ccc(S(=O)(=O)NN=c2cccccc2)cc1
T/C (dose: 100.0 mg/kg/injection, schedule: Q01DX001 (ip), vehicle: DMSO): 101 % of control
T/C (dose: 200.0 mg/kg/injection, schedule: Q01DX001 (ip), vehicle: DMSO): 97 % of control

CC1(C)OC(=O)C(=Cc2ccc[nH]2)C(=O)O1
T/C [5]: 98 % of control
T/C [6]: 105 % of control
T/C [7]: 107 % of control

O=C1NC(=O)C2(CCCc3ccc([N+](=O)[O-])cc32)N1 (centres undefined)
T/C [10]: 99 % of control
T/C [11]: 99 % of control
T/C [12]: 97 % of control

COc1cc2c(c(O)c1OC)-c1ccc(OC)c(=O)cc1[C@@H](NC(C)=O)CC2
T/C (dose: 2.5 mg/kg/injection, schedule: Q01DX009 (ip), vehicle: Klucel (hydroxypropylcellulose) (HPC)): 102 % of control
T/C (dose: 5.0 mg/kg/injection, schedule: Q01DX009 (ip), vehicle: Klucel (hydroxypropylcellulose) (HPC)): 93 % of control
T/C (dose: 10.0 mg/kg/injection, schedule: Q01DX009 (ip), vehicle: Klucel (hydroxypropylcellulose) (HPC)): 96 % of control
T/C (dose: 20.0 mg/kg/injection, schedule: Q01DX009 (ip), vehicle: Klucel (hydroxypropylcellulose) (HPC)): 93 % of control
T/C (dose: 28.0 mg/kg/injection, schedule: Q01DX009 (ip), vehicle: Klucel (hydroxypropylcellulose) (HPC)): 86 % of control
T/C (dose: 40.0 mg/kg/injection, schedule: Q01DX009 (ip), vehicle: Klucel (hydroxypropylcellulose) (HPC)): 102 % of control
T/C (dose: 56.0 mg/kg/injection, schedule: Q01DX009 (ip), vehicle: Klucel (hydroxypropylcellulose) (HPC)): 96 % of control

CN1CCOP(=O)(Oc2ccccc2)N1 (centres undefined)
T/C [13]: 103 % of control
T/C [14]: 99 % of control
T/C [15]: 100 % of control

NC(=O)N=Nc1ccc(Cl)cc1
T/C (dose: 50.0 mg/kg/injection, schedule: Q01DX005 (ip), vehicle: saline with Tween-80): 104 % of control
T/C (dose: 100.0 mg/kg/injection, schedule: Q01DX005 (ip), vehicle: saline with Tween-80): 101 % of control
T/C (dose: 200.0 mg/kg/injection, schedule: Q01DX005 (ip), vehicle: saline with Tween-80): 104 % of control

CCN(CC)c1cc(-c2ccccc2)oc(=O)c1Cl
T/C [10]: 100 % of control
T/C [11]: 93 % of control
T/C [12]: 97 % of control

CC1=NOC(=O)/C1=C/c1ccc(Cl)cc1
T/C [13]: 99 % of control
T/C [14]: 105 % of control
T/C [15]: 104 % of control

CC1OC(C)(C2CC2)OC1C (centres undefined)
T/C [16]: 95 % of control
T/C [17]: 100 % of control

OC12CC3C4CC(O1)C1C4CC3C12 (centres undefined)
T/C (dose: 60.0 mg/kg/injection, schedule: Q01DX005 (ip), vehicle: saline): 102 % of control
T/C (dose: 120.0 mg/kg/injection, schedule: Q01DX005 (ip), vehicle: saline): 109 % of control
T/C (dose: 240.0 mg/kg/injection, schedule: Q01DX005 (ip), vehicle: saline): 109 % of control

CC1(C)OC(=O)NC1c1ccccc1 (centres undefined)
T/C (dose: 6.25 mg/kg/injection, schedule: Q01DX009 (ip), vehicle: saline with Tween-80): 100 % of control
T/C (dose: 12.5 mg/kg/injection, schedule: Q01DX009 (ip), vehicle: saline with Tween-80): 99 % of control
T/C (dose: 25.0 mg/kg/injection, schedule: Q01DX009 (ip), vehicle: saline with Tween-80): 117 % of control

CCOC(=O)C(CC)C(=O)c1ccccc1 (centres undefined)
T/C (dose: 75.0 mg/kg/injection, schedule: Q01DX009 (ip), vehicle: saline with Tween-80): 105 % of control
T/C (dose: 150.0 mg/kg/injection, schedule: Q01DX009 (ip), vehicle: saline with Tween-80): 109 % of control
T/C (dose: 300.0 mg/kg/injection, schedule: Q01DX009 (ip), vehicle: saline with Tween-80): 112 % of control

O=S(=O)(O)O
T/C (dose: 30.0 mg/kg/injection, schedule: Q01DX009 (ip), vehicle: water): 108 % of control
T/C (dose: 100.0 mg/kg/injection, schedule: Q01DX009 (ip), vehicle: water): 86 % of control

O=C1OCC/C1=C\NCCCCCCCCN/C=C1\CCOC1=O
T/C [2]: 97 % of control
T/C [3]: 102 % of control
T/C [4]: 105 % of control

CCOC(=O)CC1(C)NC(=O)NC1=O (centres undefined)
T/C (dose: 50.0 mg/kg/injection, schedule: Q04DX003 (ip), vehicle: Klucel (hydroxypropylcellulose) (HPC)): 108 % of control
T/C [16]: 100 % of control
T/C [17]: 101 % of control
T/C (dose: 400.0 mg/kg/injection, schedule: Q04DX003 (ip), vehicle: Klucel (hydroxypropylcellulose) (HPC)): 100 % of control

CC1=CC(=O)C(/C=C(\C)[N+](=O)[O-])=CC1=O
T/C (dose: 12.5 mg/kg/injection, schedule: Q01DX009 (ip), vehicle: Klucel (hydroxypropylcellulose) (HPC)): 97 % of control
T/C (dose: 25.0 mg/kg/injection, schedule: Q01DX009 (ip), vehicle: Klucel (hydroxypropylcellulose) (HPC)): 99 % of control
